{"source": "patent EP3797781A1", "about": "“USE OF EC-7072 AND SYNERGIC COMPOSITIONS THEREOF IN TREATMENT OF CHRONIC LYMPHOCYTIC LEUKEMIA” (priority 2019, dated 2021)", "tested_on": "CD79A, CD79B and IgM", "assay": "Surface expression of BCR complex components on leukemia cells by flow cytometry", "format": "cell-based, human", "details": "200 nM, 8 hours; n = 5 - 6", "excerpt": "To determine immune cell populations, the following antibodies were employed: anti-CD19-APC, anti-CD3-APC, anti-CD4-PerCP and anti-CD8-APC (all from Immunostep); anti-CD3-FITC and anti-CD56-APC (Cytognos); and anti-CD3-PE/Cy7 and anti-CD5-APC/Cy7 (Biolegend). The subsets of immune cells were identified as follows: T cells were defined as CD3^+CD56^-, NK cells were identified as CD3^-CD56^+ and healthy B cells as CD19^+. Leukemia cells were defined as CD19^+, as the percentage of healthy B cells (CD19^+CD5^-) detected in PBMCs from patients with CLL was less than 2% (data not shown). Additionally, antibodies from Biolegend were used to detect surface expression of CD79A (clone: HM47), CD79B (clone: CB3-1) and IgM (clone: MHM-88). Cells were analyzed in a BD FACS Canto II flow cytometer with FACS Diva software (Beckton Dickinson).\nThe inhibition of the tonic BCR pathway by EC-7072 was evaluated by: • (i) incubating PBMCs from patients with CLL, following treatment with 200 nM EC-7072, for 8 hours. Surface expression of CD79A (Figure 7A), CD79B (Figure 7B) and IgM (Figure 7C) in leukemia cells (n = 5 - 6) was assessed by flow cytometry and the MFI was normalized to the control (DMSO) condition; • (ii) incubating isolated leukemia cells from patients with CLL (n = 10), following treatment with EC-7072 (200 nM), for 8 hours. […]", "data": [{"smiles": "CO[C@@H]([C@@H]1Cc2cc3cc(O[C@H]4C[C@@H](O[C@H]5C[C@@H](O)[C@H](O)[C@@H](C)O5)[C@H](O)[C@@H](C)O4)c(C)c(O)c3c(O)c2C(=O)[C@H]1O[C@H]1C[C@@H](O[C@H]2C[C@@H](O[C@H]3C[C@](C)(O)[C@H](O)[C@@H](C)O3)[C@@H](O)[C@@H](C)O2)[C@H](O)[C@@H](C)O1)[C@@H](O)C(C)=O", "note": "[EC-7072, mithramycin SK]", "values": [{"measurement": "CD79A CLL cell surface expression", "result": "unchanged"}, {"measurement": "CD79B and IgM CLL cell surface expression", "result": "significantly decreased"}]}]}
